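A five-concentration, 48-hour dose response in 96-well plates underlies each endpoint, interpolated linearly between surrounding concentrations. GI50 marks 50% less growth.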 Active and inactive are the calls of the source. Cut-off read from the data, not from the text of the source: active = GI50 up to about 1.1 µM and inactive = higher.

Some test systems named below: OVCAR-5; UACC-257; RXF 393; 786-0; CAKI-1; EKVX; LOX IMVI; NCI-H23; TK-10; SF-268; SK-MEL-5; HT-29; NCI-H226; HCT-116; SNB-75; OVCAR-3; SK-OV-3; Hs-578T; T47D.
Holding throughout (test): DTP human tumour cell line panel, 48 h

The term GI50 denotes the concentration at which growth is held to half of that of the control. On to `CC(C)C(NCc1c2ccccc2[n+](C)c2ccccc12)C(=O)O` (centres undefined), for which the GI50 with OVCAR-5 is 18.9 µM (inactive); in the assay on UACC-257, 5.51 µM (inactive); in the assay with RXF 393, 3.48 µM (inactive); in the assay on 786-0, 4.66 µM (inactive); with CAKI-1 it was 3.48 µM (inactive); in the assay on EKVX, 10.6 µM (inactive). For the same compound, the GI50 is 5.42 µM (inactive) in the assay on LOX IMVI; 8.43 µM (inactive) with NCI-H23; 7.91 µM (inactive) with TK-10; 2.99 µM (inactive) in the assay with SF-268; 3.31 µM (inactive) in the assay with SK-MEL-5; 2.89 µM (inactive) with HT-29. The GI50 in the assay on NCI-H226 was 14.7 µM (inactive); with HCT-116, 2.67 µM (inactive); in the assay on SNB-75 it was 1.5 µM (inactive); in the assay on OVCAR-3, 5.81 µM (inactive); in the assay with SK-OV-3, 15.5 µM (inactive).
In the case of `CC1=COC(C)(C=C(C#N)C#N)CC1` (centres undefined), the GI50 in the assay with OVCAR-5 was > 100 µM (inactive); in the assay with UACC-257, 57.3 µM (inactive); in the assay with RXF 393, > 100 µM (inactive); in the assay on 786-0, > 100 µM (inactive); in the assay with EKVX it was > 100 µM (inactive); with NCI-H23, 61 µM (inactive). Further, the GI50 with TK-10 is > 100 µM (inactive); in the assay on Hs-578T it was 15.4 µM (inactive); with SF-268 it was > 100 µM (inactive); in the assay with SK-MEL-5, 58.1 µM (inactive); in the assay on T47D, 98.4 µM (inactive); in the assay on HT-29, > 100 µM (inactive). Besides, the GI50 in the assay on NCI-H226 was > 100 µM (inactive); with HCT-116 it was 33 µM (inactive); in the assay with SNB-75, 65.8 µM (inactive); in the assay with SK-OV-3 it was > 100 µM (inactive).
Consider `NC(N)=NCCC[C@H](N)C(=O)NCC(=O)N[C@@H](CC(=O)O)c1ncc(NC(=O)C(F)(F)F)o1`, for which the GI50 in the assay on OVCAR-5, in the assay on UACC-257, in the assay on RXF 393, in the assay on 786-0, with EKVX and in the assay with LOX IMVI was > 25 µM (inactive) throughout. Moreover, the GI50 in the assay with NCI-H23, in the assay on TK-10, in the assay with Hs-578T, in the assay with SF-268, in the assay with SK-MEL-5 and in the assay on T47D was > 25 µM (inactive) in each case. Further, the GI50 with HT-29, in the assay with NCI-H226, with HCT-116, in the assay on SNB-75, in the assay with OVCAR-3 and in the assay with SK-OV-3 was > 25 µM (inactive) in each case.
As to `O=C(NC1=C(Cl)C(=O)c2ccccc2C1=O)C(=O)C(C(=O)c1ccc2ccccc2c1)C1OC(=O)c2ccccc21` (centres undefined), the GI50 with OVCAR-5 is 11.8 µM (inactive); in the assay with UACC-257, 2.19 µM (inactive); in the assay with RXF 393, 4.49 µM (inactive); in the assay with 786-0, 5.92 µM (inactive); in the assay on CAKI-1, 6.34 µM (inactive); in the assay on EKVX it was 12 µM (inactive). Also, the GI50 in the assay with LOX IMVI is 1.08 µM (active); in the assay on NCI-H23, 2.9 µM (inactive); with TK-10, 25.6 µM (inactive); in the assay with Hs-578T, 6.25 µM (inactive); in the assay with SF-268, 4.53 µM (inactive); with SK-MEL-5, 0.564 µM (active). For the same compound, the GI50 with T47D was 5.35 µM (inactive); with HT-29 it was 4.07 µM (inactive); in the assay on NCI-H226 it was 0.986 µM (active); with HCT-116, 3.52 µM (inactive); with SNB-75, 2.87 µM (inactive); with OVCAR-3, 2.7 µM (inactive). Also, the GI50 with SK-OV-3 is 13.2 µM (inactive).
In the case of `N#CC(C(=O)/C(=N/Nc1nc(S)nn1N)C(C#N)c1ccccc1)c1ccccc1` (centres undefined), the GI50 in the assay with OVCAR-5, with UACC-257, with RXF 393, with 786-0, in the assay on CAKI-1 and in the assay on EKVX was > 100 µM (inactive) throughout. Moreover, the GI50 with LOX IMVI, in the assay on NCI-H23, with TK-10, in the assay with Hs-578T, in the assay with SF-268 and in the assay with SK-MEL-5 was > 100 µM (inactive) each time. The GI50 with T47D, with HT-29, with NCI-H226, in the assay on HCT-116, with SNB-75 and in the assay with OVCAR-3 was > 100 µM (inactive) each time. For the same compound, the GI50 in the assay on SK-OV-3 was > 100 µM (inactive).
As to `C[S+](C)CC(=O)c1ccc2c(c1)Sc1ccccc1O2`, the GI50 with OVCAR-5 was 5.87 µM (inactive); in the assay with UACC-257, 4.72 µM (inactive); in the assay with RXF 393, 3.78 µM (inactive); in the assay on 786-0 it was 2.72 µM (inactive); in the assay on CAKI-1 it was 4.39 µM (inactive); with EKVX it was 3.44 µM (inactive). Besides, the GI50 was 3.18 µM (inactive) in the assay on LOX IMVI; 3.49 µM (inactive) in the assay on NCI-H23; 5.38 µM (inactive) in the assay with TK-10; 3.45 µM (inactive) with Hs-578T; 5.43 µM (inactive) with SF-268; 1.08 µM (active) in the assay with SK-MEL-5. Further, the GI50 in the assay with T47D is 9.57 µM (inactive); in the assay with HT-29, 1.17 µM (inactive); in the assay on NCI-H226, 5.16 µM (inactive); in the assay with HCT-116, 1.32 µM (inactive); in the assay on SNB-75 it was 2.7 µM (inactive); with OVCAR-3, 2.4 µM (inactive). Further, in the assay with SK-OV-3, the GI50 was 6.04 µM (inactive).
Take `COc1cccc(NC(=O)C(C)(C)C)c1SSc1c(NC(=O)C(C)(C)C)cccc1OC`: the GI50 in the assay on OVCAR-5 was 26.7 µM (inactive); with UACC-257 it was 22.7 µM (inactive); with RXF 393 it was 20.3 µM (inactive); in the assay with 786-0, 21.6 µM (inactive); with CAKI-1, > 42.5 µM (inactive); with EKVX, 64.1 µM (inactive). Further, the GI50 in the assay with LOX IMVI was 15.4 µM (inactive); with NCI-H23 it was 35 µM (inactive); in the assay with TK-10 it was > 100 µM (inactive); with SF-268, 18.1 µM (inactive); in the assay on SK-MEL-5, 44.1 µM (inactive); in the assay with HT-29, 27.3 µM (inactive). The GI50 with NCI-H226 is > 53.8 µM (inactive); in the assay on HCT-116, 22.4 µM (inactive); with SNB-75 it was 40.6 µM (inactive); in the assay on OVCAR-3 it was 37.9 µM (inactive); in the assay on SK-OV-3, > 83.4 µM (inactive).
In the case of `N/C(=N\c1ccc(Cl)cc1)NS(=O)(=O)c1ccc(-c2ncccc2C(F)(F)F)s1`, the GI50 with OVCAR-5 was 24.3 µM (inactive); in the assay with UACC-257, 3.17 µM (inactive); in the assay on RXF 393, 18.3 µM (inactive); in the assay with 786-0, 17.1 µM (inactive); with EKVX, 4.61 µM (inactive); with LOX IMVI, 14 µM (inactive). For the same compound, the GI50 in the assay on NCI-H23 was 13.5 µM (inactive); with TK-10, 13.4 µM (inactive); with Hs-578T, 17.1 µM (inactive); with SF-268 it was 16.5 µM (inactive); in the assay with SK-MEL-5, 20.5 µM (inactive); in the assay with T47D, 12.3 µM (inactive). Also, the GI50 with HT-29 was 19.4 µM (inactive); with NCI-H226, 17.2 µM (inactive); in the assay with HCT-116 it was 14 µM (inactive); with SNB-75 it was 18.8 µM (inactive); in the assay with OVCAR-3 it was 17.6 µM (inactive); with SK-OV-3, 17.4 µM (inactive).
Take `CN(C)C(=O)Nc1c([N+](=O)[O-])cc(C(F)(F)F)cc1[N+](=O)[O-]`: the GI50 was > 100 µM (inactive) in the assay on OVCAR-5; 27.8 µM (inactive) in the assay on UACC-257; 8.45 µM (inactive) in the assay with RXF 393; > 100 µM (inactive) in the assay on 786-0; > 100 µM (inactive) with CAKI-1; > 100 µM (inactive) in the assay with EKVX. Besides, the GI50 with LOX IMVI is 28.8 µM (inactive); in the assay on NCI-H23, 27.7 µM (inactive); in the assay on TK-10, > 100 µM (inactive); with SF-268 it was > 100 µM (inactive); in the assay with SK-MEL-5 it was 17.2 µM (inactive); in the assay with HT-29 it was 35 µM (inactive). For the same compound, the GI50 was > 100 µM (inactive) with NCI-H226; 24.6 µM (inactive) in the assay with HCT-116; 74 µM (inactive) in the assay with SNB-75; 19.5 µM (inactive) in the assay on OVCAR-3; > 100 µM (inactive) with SK-OV-3.
Turning to `CC1=CC(=O)CCC2(C)C1CC[C@@H]2OC=O` (some centres undefined), the GI50 with OVCAR-5, in the assay on UACC-257, in the assay on RXF 393, in the assay on 786-0, with CAKI-1 and in the assay on EKVX was > 100 µM (inactive) each time. Moreover, the GI50 with LOX IMVI, in the assay with NCI-H23, in the assay on TK-10, with SF-268, in the assay with SK-MEL-5 and in the assay on HT-29 was > 100 µM (inactive) throughout. Moreover, the GI50 is > 100 µM (inactive) in the assay on NCI-H226; > 100 µM (inactive) in the assay on HCT-116; 93.5 µM (inactive) with SNB-75; > 100 µM (inactive) in the assay on OVCAR-3; > 100 µM (inactive) in the assay on SK-OV-3.
Consider `COc1cc2c(cc1OC)[C@@H](Nc1ccc(F)cc1)C1COC(=O)[C@@H]1C2c1cc(OC)c(O)c(OC)c1` (some centres undefined), for which the GI50 is 3.33 µM (inactive) in the assay on OVCAR-5; 5.53 µM (inactive) in the assay on UACC-257; 3.4 µM (inactive) in the assay with RXF 393; 0.573 µM (active) in the assay on 786-0; 0.384 µM (active) in the assay with CAKI-1; > 38.2 µM (inactive) in the assay with EKVX. Besides, the GI50 in the assay with LOX IMVI is 0.671 µM (active); in the assay on NCI-H23, 0.632 µM (active); in the assay on TK-10, 7.18 µM (inactive); in the assay on SF-268 it was 2.1 µM (inactive); with SK-MEL-5, 1.93 µM (inactive); in the assay with HT-29 it was 3.66 µM (inactive). Also, the concentration for 50% growth inhibition (GI50) is 0.231 µM (active) in the assay on NCI-H226; 3.56 µM (inactive) with HCT-116; 2.5 µM (inactive) with SNB-75; 23.4 µM (inactive) in the assay on OVCAR-3; 1.56 µM (inactive) in the assay on SK-OV-3.
